Columns and labels:
bedstraw = experiment: Test B pre/postemergence bedstraw; assay type: in vivo, Galium aparine; conditions: Preemergence
Procedure, shortened: (§1)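 Test chemicals in a non-phytotoxic solvent mixture with surfactant were sprayed preemergence onto planted seeds and postemergence onto plants 2 to 18 cm tall (1- to 4-leaf stage). After twelve to sixteen days in a greenhouse, injury was visually rated against untreated controls from 0 (no effect) to 10 (complete control).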

blackgrass = experiment: Test B pre/postemergence blackgrass; assay type: in vivo, Alopecurus myosuroides
Procedure, shortened: as §1

surinam grass = experiment: Test B pre/postemergence surinam grass; assay type: in vivo, Brachiaria decumbens
Procedure, shortened: as §1

cocklebur = experiment: Test B pre/postemergence cocklebur; assay type: in vivo, Xanthium strumarium
Procedure, shortened: as §1

corn = experiment: Test B pre/postemergence corn; assay type: in vivo, Zea mays
Procedure, shortened: as §1

crabgrass = experiment: Test B pre/postemergence crabgrass; assay type: in vivo, Digitaria sanguinalis
Procedure, shortened: as §1

giant foxtail = experiment: Test B pre/postemergence giant foxtail; assay type: in vivo, Setaria faberii
Procedure, shortened: as §1

morningglory = experiment: Test B pre/postemergence morningglory; assay type: in vivo, Ipomoea hederacea
Procedure, shortened: as §1

pigweed = experiment: Test B pre/postemergence pigweed; assay type: in vivo, Amaranthus retroflexus
Procedure, shortened: as §1

rape = experiment: Test B pre/postemergence rape; assay type: in vivo, Brassica napus
Procedure, shortened: as §1

soybean = experiment: Test B pre/postemergence soybean; assay type: in vivo, Glycine max
Procedure, shortened: as §1

sugar beet = experiment: Test B pre/postemergence sugar beet; assay type: in vivo, Beta vulgaris
Procedure, shortened: as §1

velvetleaf = experiment: Test B pre/postemergence velvetleaf; assay type: in vivo, Abutilon theophrasti
Procedure, shortened: as §1

wheat = experiment: Test B pre/postemergence wheat; assay type: in vivo, Triticum aestivum
Procedure, shortened: as §1

wild oat = experiment: Test B pre/postemergence wild oat; assay type: in vivo, Avena fatua
Procedure, shortened: as §1

purple nutsedge = experiment: Test B pre/postemergence purple nutsedge; assay type: in vivo, Cyperus rotundus
Procedure, shortened: as §1

rice = experiment: Test B flood test rice; assay type: in vivo, Oryza sativa
Procedure, shortened: (§2)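 Each value is a visual injury score relative to controls, with 10 meaning complete control and 0 no effect. Evaluation took place twelve to sixteen days after the 2-leaf-stage plants were treated and kept in the greenhouse.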

smallflower flatsedge = experiment: Test B flood test smallflower flatsedge; assay type: in vivo, Cyperus difformis
Procedure, shortened: as §2

duck salad = experiment: Test B flood test duck salad; assay type: in vivo, Heteranthera limosa
Procedure, shortened: as §2

bamyardgrass = experiment: Test B flood test barnyardgrass; assay type: in vivo, Echinochloa crus-galli
Procedure, shortened: as §2

[1] = Postemergence, Rate 125 g/ha, scale of 0 to 10 where 0 is no effect and 10 is complete control
[2] = Postemergence, Rate 250 g/ha, scale of 0 to 10, 0 is no effect, 10 is complete control
[3] = Postemergence, Rate 500 g/ha, scale of 0 to 10 where 0 is no effect and 10 is complete control
[4] = Preemergence, Rate 62 g/ha, scale 0 to 10 (0 no effect, 10 complete control)
[5] = Preemergence, Rate 125 g/ha, scale of 0 to 10 where 0 is no effect and 10 is complete control
[6] = Preemergence, Rate 500 g/ha, scale of 0 to 10 where 0 is no effect and 10 is complete control
[7] = Postemergence, Rate 62 g/ha, scale of 0 to 10, 0 is no effect, 10 is complete control
[8] = Rate 62 g/ha, flood test species, Pre-emergence, visual evaluation after twelve to sixteen days
[9] = Rate 125 g/ha, under heading Pre-emergence, flood test species, visual evaluation after twelve to sixteen days
[10] = Rate 250 g/ha, Pre-emergence (flood test species), scale 0 to 10, 0 is no effect, 10 is complete control
[11] = Rate 500 g/ha, Pre-emergence section of Table B, 0 to 10 scale (0 no effect, 10 complete control)

## CC(C)N(C(=O)n1oc(=O)n(C(C)CBr)c1=O)c1ccc(F)cc1F (stereo not drawn) [Compound 594]
bedstraw; Rate 62 g/ha, scale 0 to 10 (0 no effect, 10 complete control)
  Bedstraw plant response rating: 0
bedstraw; Rate 125 g/ha, scale of 0 to 10 where 0 is no effect and 10 is complete control
  Bedstraw plant response rating: 0
bedstraw; Rate 250 g/ha
  Bedstraw plant response rating (0 to 10 scale): 2
bedstraw; Rate 500 g/ha, scale of 0 to 10 where 0 is no effect and 10 is complete control
  Bedstraw plant response rating: 9
blackgrass; [1]
  Plant response rating, Blackgrass: 5
blackgrass; [2]
  Blackgrass plant response rating: 5
blackgrass; [3]
  Plant response rating, Blackgrass: 5
blackgrass; [4]
  Blackgrass plant response rating: 5
blackgrass; [5]
  Blackgrass plant response rating: 5
blackgrass; Preemergence, Rate 250 g/ha
  Blackgrass plant response rating (0 to 10 scale): 9
blackgrass; [6]
  Blackgrass plant response rating: 9
Surinam grass; [7]
  B. signalgrass plant response rating: 0
Surinam grass; [1]
  Plant response rating, B. signalgrass: 0
Surinam grass; [2]
  B. signalgrass plant response rating: 2
Surinam grass; [3]
  Plant response rating, B. signalgrass: 3
Surinam grass; [4]
  B. signalgrass plant response rating: 3
Surinam grass; [5]
  B. signalgrass plant response rating: 3
Surinam grass; Preemergence, Rate 250 g/ha
  B. signalgrass plant response rating (0 to 10 scale, 0 is no effect, 10 is complete control): 5
Surinam grass; [6]
  B. signalgrass plant response rating: 7
cocklebur; [7]
  Cocklebur plant response rating: 0
cocklebur; [1]
  Plant response rating, Cocklebur: 0
cocklebur; [2]
  Cocklebur plant response rating: 3
cocklebur; [3]
  Plant response rating, Cocklebur: 4
cocklebur; [5]
  Cocklebur plant response rating: 0
cocklebur; Preemergence, Rate 250 g/ha
  Cocklebur plant response rating (0 to 10 scale): 0
cocklebur; [6]
  Plant response rating, Cocklebur: 2
corn; [7]
  Corn plant response rating: 0
corn; [1]
  Plant response rating, Corn: 0
corn; [2]
  Corn plant response rating: 0
corn; [3]
  Plant response rating, Corn: 0
corn; [4]
  Corn plant response rating: 0
corn; [5]
  Corn plant response rating: 0
corn; Preemergence, Rate 250 g/ha
  Corn plant response rating (0 to 10 scale): 2
corn; [6]
  Plant response rating, Corn: 4
crabgrass; [7]
  Crabgrass plant response rating: 5
crabgrass; [1]
  Plant response rating, Crabgrass: 7
crabgrass; [2]
  Crabgrass plant response rating: 9
crabgrass; [3]
  Plant response rating, Crabgrass: 9
crabgrass; [4]
  Crabgrass plant response rating: 9
crabgrass; [5]
  Crabgrass plant response rating: 9
crabgrass; [6]
  Plant response rating, Crabgrass: 9
Giant foxtail; [7]
  Giant foxtail plant response rating: 6
Giant foxtail; [1]
  Plant response rating, Giant foxtail: 7
Giant foxtail; [2]
  Giant foxtail plant response rating: 7
Giant foxtail; [3]
  Plant response rating, Giant foxtail: 9
Giant foxtail; [4]
  Giant foxtail plant response rating: 9
Giant foxtail; [5]
  Giant foxtail plant response rating: 9
Giant foxtail; [6]
  Plant response rating, Giant foxtail: 10
morningglory; [7]
  Morningglory plant response rating: 0
morningglory; [1]
  Plant response rating, Morningglory: 2
morningglory; [2]
  Morningglory plant response rating: 2
morningglory; [3]
  Plant response rating, Morningglory: 7
morningglory; [4]
  Morningglory plant response rating: 0
morningglory; [5]
  Morningglory plant response rating: 0
morningglory; [6]
  Plant response rating, Morningglory: 6
pigweed; [1]
  Plant response rating, Redroot pigweed: 0
pigweed; [2]
  Redroot pigweed plant response rating: 3
pigweed; [3]
  Plant response rating, Redroot pigweed: 4
pigweed; [4]
  Redroot pigweed plant response rating: 0
pigweed; [5]
  Redroot pigweed plant response rating: 0
pigweed; [6]
  Plant response rating, Redroot pigweed: 10
rape; [7]
  Rape plant response rating: 0
rape; [1]
  Plant response rating, Rape: 0
rape; [2]
  Rape plant response rating: 0
rape; [3]
  Plant response rating, Rape: 0
rape; [4]
  Rape plant response rating: 0
rape; [5]
  Rape plant response rating: 0
rape; [6]
  Plant response rating, Rape: 9
soybean; [1]
  Plant response rating, Soybean: 0
soybean; [3]
  Plant response rating, Soybean: 4
soybean; [4]
  Soybean plant response rating: 0
soybean; [5]
  Soybean plant response rating: 0
soybean; [6]
  Plant response rating, Soybean: 4
Sugar beet; [1]
  Plant response rating, Sugarbeets: 5
Sugar beet; [2]
  Sugarbeets plant response rating: 5
Sugar beet; [3]
  Plant response rating, Sugarbeets: 5
Sugar beet; [4]
  Sugarbeets plant response rating: 0
Sugar beet; [5]
  Sugarbeets plant response rating: 0
Sugar beet; [6]
  Plant response rating, Sugarbeets: 8
velvetleaf; [1]
  Plant response rating, Velvetleaf: 3
velvetleaf; [2]
  Velvetleaf plant response rating: 3
velvetleaf; [3]
  Plant response rating, Velvetleaf: 5
velvetleaf; [4]
  Velvetleaf plant response rating: 2
velvetleaf; [5]
  Velvetleaf plant response rating: 4
velvetleaf; [6]
  Plant response rating, Velvetleaf: 7
wheat; [1]
  Plant response rating, Wheat: 0
wheat; [2]
  Wheat plant response rating: 0
wheat; [3]
  Plant response rating, Wheat: 0
wheat; [4]
  Wheat plant response rating: 0
wheat; [5]
  Wheat plant response rating: 0
wheat; [6]
  Plant response rating, Wheat: 2
Wild oat; [1]
  Plant response rating, Wild oats: 0
Wild oat; [2]
  Wild oats plant response rating: 0
Wild oat; [3]
  Plant response rating, Wild oats: 0
Wild oat; [4]
  Wild oats plant response rating: 0
Wild oat; [5]
  Wild oats plant response rating: 0
Wild oat; [6]
  Plant response rating, Wild oats: 5
Purple nutsedge; [7]
  Nutsedge plant response rating: 0
Purple nutsedge; [1]
  Plant response rating, Nutsedge: 0
Purple nutsedge; [2]
  Nutsedge plant response rating: 3
Purple nutsedge; [3]
  Plant response rating, Nutsedge: 3
Purple nutsedge; [4]
  Nutsedge plant response rating: 0
Purple nutsedge; [5]
  Nutsedge plant response rating: 0
Purple nutsedge; [6]
  Plant response rating, Nutsedge: 6
rice; [8]
  Plant response rating, Rice (0 to 10 scale, 0 is no effect, 10 is complete control): 0
rice; [9]
  Rice plant response rating (0 to 10 scale, 0 is no effect, 10 is complete control): 0
rice; [10]
  Rice plant response rating: 0
rice; [11]
  Rice plant response rating: 0
Smallflower flatsedge; [8]
  Plant response rating, S. Flatsedge (0 to 10 scale, 0 is no effect, 10 is complete control): 0
Smallflower flatsedge; [9]
  S. Flatsedge plant response rating (0 to 10 scale, 0 is no effect, 10 is complete control): 0
Smallflower flatsedge; [10]
  S. Flatsedge plant response rating: 0
Smallflower flatsedge; [11]
  S. Flatsedge plant response rating: 0
Duck salad; [8]
  Plant response rating, Ducksalad (0 to 10 scale, 0 is no effect, 10 is complete control): 0
Duck salad; [9]
  Ducksalad plant response rating (0 to 10 scale, 0 is no effect, 10 is complete control): 0
Duck salad; [10]
  Ducksalad plant response rating: 0
Duck salad; [11]
  Ducksalad plant response rating: 0
bamyardgrass; [8]
  Plant response rating, Barnyardgrass (0 to 10 scale, 0 is no effect, 10 is complete control): 0
bamyardgrass; [9]
  Barnyardgrass plant response rating (0 to 10 scale, 0 is no effect, 10 is complete control): 0
bamyardgrass; [10]
  Barnyardgrass plant response rating: 0
bamyardgrass; [11]
  Barnyardgrass plant response rating: 0

Source: patent publication US6737383B1, “Herbicidal oxadiazolidines” (priority 1999, dated 2004)
